Here are results for one compound from patent US6632803B1, “Pharmaceutical formulations containing voriconazole” (Pfizer Inc, priority 1997, dated 2003).

Values after ≈ are worked out from the molar mass of the structure shown.

In general, solubility refers to how much of the substance goes into solution per volume. For orientation: logD means the decadic logarithm of the distribution of all forms, ionised or not, between an organic phase and buffer at a given pH. A higher logD goes with a more lipophilic compound.

Holding throughout (format): physicochemical
One data set can be described thus: stability in water. The settings on record: inactive enantiomer formed from recombination of retro-aldol products of hydrolysis.
Data set [1] is described as follows: aqueous solubility of voriconazole. To be noted: aqueous solution, pH 3, aqueous buffer.
Another data set is described as follows: log D of voriconazole.

For the compound `C[C@@H](c1ncncc1F)[C@](O)(Cn1cncn1)c1ccc(F)cc1F` [Voriconazole], the stability in water entry in “stability in water” was “not stable in water”. Besides, in data set [1], the concentration in solution (solubility) came to 200 µg/mL (≈ 573 µM). For the same compound, the pH-dependent lipophilicity (logD) in “log D of voriconazole” stood at 1.8.
